These results are taken from US9839642B2, “Beta-tetrazolyl-propionic acids as metallo-beta-lactamase inhibitors” (priority 2014, dated 2017).

In the first test the target is NDM-1 (Klebsiella pneumoniae, UniProt C7C422). In words: Enzyme activity: determination of IC50, fluorescence assay with CCF2-FA substrate. The test is classed as biochemical. The following applies: enzyme 1 pM, CCF2-FA 1.25 μM, 2 hours at 25° C.; read-out: NDM1 IC50. Summed up: (§1)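 Enzyme (1 pM NDM-1, 2 pM IMP-1, 30 pM VIM-1) incubated with inhibitor (20 to 0.00063 μM) and 1.25 μM CCF2-FA in 100 mM KH2PO4 pH 7, 0.005% Tween-20, 10 μM ZnSO4, 2 h at 25 °C. Fluorescence read at 460 nm (ex 405 nm); IC50 by 4-parameter fit.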
NDM-1, sequence (C7C422 29-270, looked up, species assumed): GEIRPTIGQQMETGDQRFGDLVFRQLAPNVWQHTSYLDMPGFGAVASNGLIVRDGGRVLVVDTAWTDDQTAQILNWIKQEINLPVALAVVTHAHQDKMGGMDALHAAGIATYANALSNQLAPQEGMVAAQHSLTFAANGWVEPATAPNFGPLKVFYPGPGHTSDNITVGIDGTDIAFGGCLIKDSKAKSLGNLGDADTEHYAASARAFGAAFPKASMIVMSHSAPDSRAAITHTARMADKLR
Take `CCC[C@H](C(=O)O)[C@H](Cc1ccccc1)c1nnn[nH]1` [Example 4, (S)-2-((S)-2-phenyl-1-(1H-tetrazol-5-yl)ethyl)pentanoic acid]: the IC50 stood at 49 nM.
Turning to `CCC[C@@H](C(=O)O)[C@H](Cc1ccccc1)c1nnn[nH]1` [Example 5, (R)-2-((S)-2-phenyl-1-(1H-tetrazol-5-yl)ethyl)pentanoic acid], the IC50 stood at 230 nM.
As for `O=C(O)[C@@H](CCCC(F)(F)F)[C@H](Cc1ccccc1)c1nnn[nH]1` [Example 6, (S)-6,6,6-trifluoro-2-((S)-2-phenyl-1-(1H-tetrazol-5-yl)ethyl)hexanoic acid], the IC50 is 240 nM.
In the case of `CC(C)C[C@H](C(=O)O)[C@H](Cc1ccccc1)c1nnn[nH]1` [Example 7, (2S)-4-methyl-2-[(2S)-2-phenyl-1-(1H-tetrazol-5-yl)ethyl]pentanoic acid], the IC50 was found to be 19 nM.
On to `CC[C@H](C(=O)O)[C@H](Cc1ccccc1)c1nnn[nH]1` [Example 8, (2S,3S)-2-ethyl-4-phenyl-3-(1H-tetrazol-5-yl)butanoic acid], for which the IC50 is 81 nM.
On the same count and under the same terms, the value for `COCCC[C@H](C(=O)O)[C@H](Cc1ccccc1)c1nnn[nH]1` [Example 9, (2S)-5-methoxy-2-[(1S)-2-phenyl-1-(1H-tetrazol-5-yl)ethyl]pentanoic acid] was 97 nM; that for `O=C(O)[C@@H](CC1CCCC1)[C@H](Cc1ccccc1)c1nnn[nH]1` [Example 10, (2S,3S)-2-(cyclopentylmethyl)-4-phenyl-3-(1H-tetrazol-5-yl)butanoic acid] was 47 nM.
On the same count and under the same terms, the value for `O=C(O)[C@@H](CCC1CCCCC1)[C@H](Cc1ccccc1)c1nnn[nH]1` [Example 11, (2S,3S)-2-(2-cyclohexylethyl)-4-phenyl-3-(1H-tetrazol-5-yl)butanoic acid] was 57 nM.

In the next test the target is VIM-1 (Pseudomonas aeruginosa, UniProt A0A0F7KYQ8). The description is as above. The format is biochemical. As to conditions: enzyme 30 pM, CCF2-FA 1.25 μM, 2 hours at 25° C.; read-out: VIM1 IC50. In outline:
as §1
Turning to `CCC[C@H](C(=O)O)[C@H](Cc1ccccc1)c1nnn[nH]1` [Example 4, (S)-2-((S)-2-phenyl-1-(1H-tetrazol-5-yl)ethyl)pentanoic acid], the IC50 turned out to be 14 nM.
On the same count and under the same terms, the same measure for `CCC[C@@H](C(=O)O)[C@H](Cc1ccccc1)c1nnn[nH]1` [Example 5, (R)-2-((S)-2-phenyl-1-(1H-tetrazol-5-yl)ethyl)pentanoic acid]: 61 nM.
The same measure, in the same setting: the same measure for `O=C(O)[C@@H](CCCC(F)(F)F)[C@H](Cc1ccccc1)c1nnn[nH]1` [Example 6, (S)-6,6,6-trifluoro-2-((S)-2-phenyl-1-(1H-tetrazol-5-yl)ethyl)hexanoic acid]: 130 nM; for `CC(C)C[C@H](C(=O)O)[C@H](Cc1ccccc1)c1nnn[nH]1` [Example 7, (2S)-4-methyl-2-[(2S)-2-phenyl-1-(1H-tetrazol-5-yl)ethyl]pentanoic acid]: 3.3 nM; for `CC[C@H](C(=O)O)[C@H](Cc1ccccc1)c1nnn[nH]1` [Example 8, (2S,3S)-2-ethyl-4-phenyl-3-(1H-tetrazol-5-yl)butanoic acid]: 21 nM.
Still for that read-out and setting: the value for `COCCC[C@H](C(=O)O)[C@H](Cc1ccccc1)c1nnn[nH]1` [Example 9, (2S)-5-methoxy-2-[(1S)-2-phenyl-1-(1H-tetrazol-5-yl)ethyl]pentanoic acid] was 63 nM; that for `O=C(O)[C@@H](CC1CCCC1)[C@H](Cc1ccccc1)c1nnn[nH]1` [Example 10, (2S,3S)-2-(cyclopentylmethyl)-4-phenyl-3-(1H-tetrazol-5-yl)butanoic acid] was 29 nM; that for `O=C(O)[C@@H](CCC1CCCCC1)[C@H](Cc1ccccc1)c1nnn[nH]1` [Example 11, (2S,3S)-2-(2-cyclohexylethyl)-4-phenyl-3-(1H-tetrazol-5-yl)butanoic acid] was 34 nM.

For another test, the target named is IMP-1 (Serratia marcescens, UniProt P52699). The description is as above. The format is biochemical. As to conditions: enzyme 2 pM, CCF2-FA 1.25 μM, 2 hours at 25° C.; read-out: IMP1 IC50. Summed up: as §1
IMP-1, sequence (P52699 19-246, looked up, species assumed): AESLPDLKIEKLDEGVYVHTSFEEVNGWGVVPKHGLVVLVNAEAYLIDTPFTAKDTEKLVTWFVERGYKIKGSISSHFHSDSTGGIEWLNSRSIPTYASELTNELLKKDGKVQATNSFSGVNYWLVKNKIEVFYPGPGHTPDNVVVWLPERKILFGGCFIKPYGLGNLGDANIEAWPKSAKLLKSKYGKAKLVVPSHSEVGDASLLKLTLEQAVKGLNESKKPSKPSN
Regarding `CCC[C@H](C(=O)O)[C@H](Cc1ccccc1)c1nnn[nH]1` [Example 4, (S)-2-((S)-2-phenyl-1-(1H-tetrazol-5-yl)ethyl)pentanoic acid], the IC50 came to 380 nM.
For the compound `CCC[C@@H](C(=O)O)[C@H](Cc1ccccc1)c1nnn[nH]1` [Example 5, (R)-2-((S)-2-phenyl-1-(1H-tetrazol-5-yl)ethyl)pentanoic acid], the IC50 was 1500 nM.
On to `O=C(O)[C@@H](CCCC(F)(F)F)[C@H](Cc1ccccc1)c1nnn[nH]1` [Example 6, (S)-6,6,6-trifluoro-2-((S)-2-phenyl-1-(1H-tetrazol-5-yl)ethyl)hexanoic acid], for which the IC50 came to 730 nM.
For the compound `CC(C)C[C@H](C(=O)O)[C@H](Cc1ccccc1)c1nnn[nH]1` [Example 7, (2S)-4-methyl-2-[(2S)-2-phenyl-1-(1H-tetrazol-5-yl)ethyl]pentanoic acid], the IC50 was determined as 52 nM.
On the same count and under the same terms, the value for `CC[C@H](C(=O)O)[C@H](Cc1ccccc1)c1nnn[nH]1` [Example 8, (2S,3S)-2-ethyl-4-phenyl-3-(1H-tetrazol-5-yl)butanoic acid] was 1800 nM.
In the case of `COCCC[C@H](C(=O)O)[C@H](Cc1ccccc1)c1nnn[nH]1` [Example 9, (2S)-5-methoxy-2-[(1S)-2-phenyl-1-(1H-tetrazol-5-yl)ethyl]pentanoic acid], the IC50 was determined as 850 nM.
As for `O=C(O)[C@@H](CC1CCCC1)[C@H](Cc1ccccc1)c1nnn[nH]1` [Example 10, (2S,3S)-2-(cyclopentylmethyl)-4-phenyl-3-(1H-tetrazol-5-yl)butanoic acid], the IC50 amounted to 48 nM.
Same read-out and setting: the value for `O=C(O)[C@@H](CCC1CCCCC1)[C@H](Cc1ccccc1)c1nnn[nH]1` [Example 11, (2S,3S)-2-(2-cyclohexylethyl)-4-phenyl-3-(1H-tetrazol-5-yl)butanoic acid] was 230 nM.

The subject of another test is Escherichia coli expressing NDM-1 (CLB30005). In words: Antibiotic potentiation activity: synergistic concentration (MITC95) with imipenem, growth by OD600. The test is classed as cell-based. As to conditions: 95% inhibition of bacterial growth, strain CLB30005. Summed up:
(§2)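 Strains grown overnight at 35° C, resuspended in saline, diluted 1:100 into 1.1×CAMHB; imipenem at 1 μg/ml or 4 μg/ml with test compound 200 μM to 0.195 μM. Incubated 22 hours to 24 hours at 35° C, OD600 read; MITC95 is lowest compound concentration inhibiting 95% of growth.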
Consider `CCC[C@H](C(=O)O)[C@H](Cc1ccccc1)c1nnn[nH]1` [Example 4, (S)-2-((S)-2-phenyl-1-(1H-tetrazol-5-yl)ethyl)pentanoic acid], for which the “NDM1 EC30005 MITC95” value turned out to be 9.4 µM.
On the same count and under the same terms, the same measure for `CCC[C@@H](C(=O)O)[C@H](Cc1ccccc1)c1nnn[nH]1` [Example 5, (R)-2-((S)-2-phenyl-1-(1H-tetrazol-5-yl)ethyl)pentanoic acid]: 62.5 µM; for `O=C(O)[C@@H](CCCC(F)(F)F)[C@H](Cc1ccccc1)c1nnn[nH]1` [Example 6, (S)-6,6,6-trifluoro-2-((S)-2-phenyl-1-(1H-tetrazol-5-yl)ethyl)hexanoic acid]: 75 µM.
On the same count and under the same terms, the value for `CC(C)C[C@H](C(=O)O)[C@H](Cc1ccccc1)c1nnn[nH]1` [Example 7, (2S)-4-methyl-2-[(2S)-2-phenyl-1-(1H-tetrazol-5-yl)ethyl]pentanoic acid] was 18.8 µM.
Turning to `CC[C@H](C(=O)O)[C@H](Cc1ccccc1)c1nnn[nH]1` [Example 8, (2S,3S)-2-ethyl-4-phenyl-3-(1H-tetrazol-5-yl)butanoic acid], the “NDM1 EC30005 MITC95” value amounted to 9.4 µM.
The same measure, in the same setting: the same measure for `COCCC[C@H](C(=O)O)[C@H](Cc1ccccc1)c1nnn[nH]1` [Example 9, (2S)-5-methoxy-2-[(1S)-2-phenyl-1-(1H-tetrazol-5-yl)ethyl]pentanoic acid]: 31 µM; for `O=C(O)[C@@H](CC1CCCC1)[C@H](Cc1ccccc1)c1nnn[nH]1` [Example 10, (2S,3S)-2-(cyclopentylmethyl)-4-phenyl-3-(1H-tetrazol-5-yl)butanoic acid]: 50 µM; for `O=C(O)[C@@H](CCC1CCCCC1)[C@H](Cc1ccccc1)c1nnn[nH]1` [Example 11, (2S,3S)-2-(2-cyclohexylethyl)-4-phenyl-3-(1H-tetrazol-5-yl)butanoic acid]: 25 µM.

The subject of the next test is Serratia marcescens expressing IMP-1 (CL5741). The description is as above. The format is cell-based. As to conditions: 95% inhibition of bacterial growth, strain CL5741. In outline:
as §2
In the case of `CCC[C@H](C(=O)O)[C@H](Cc1ccccc1)c1nnn[nH]1` [Example 4, (S)-2-((S)-2-phenyl-1-(1H-tetrazol-5-yl)ethyl)pentanoic acid], the “IMP1 SM5741 MITC95” value was above 200 µM.
On the same count and under the same terms, the value for `CCC[C@@H](C(=O)O)[C@H](Cc1ccccc1)c1nnn[nH]1` [Example 5, (R)-2-((S)-2-phenyl-1-(1H-tetrazol-5-yl)ethyl)pentanoic acid] was above 200 µM; that for `O=C(O)[C@@H](CCCC(F)(F)F)[C@H](Cc1ccccc1)c1nnn[nH]1` [Example 6, (S)-6,6,6-trifluoro-2-((S)-2-phenyl-1-(1H-tetrazol-5-yl)ethyl)hexanoic acid] was 106.3 µM.
As for `CC(C)C[C@H](C(=O)O)[C@H](Cc1ccccc1)c1nnn[nH]1` [Example 7, (2S)-4-methyl-2-[(2S)-2-phenyl-1-(1H-tetrazol-5-yl)ethyl]pentanoic acid], the “IMP1 SM5741 MITC95” value was found to be 62.5 µM.
With `CC[C@H](C(=O)O)[C@H](Cc1ccccc1)c1nnn[nH]1` [Example 8, (2S,3S)-2-ethyl-4-phenyl-3-(1H-tetrazol-5-yl)butanoic acid], the “IMP1 SM5741 MITC95” value worked out at 125 µM.
As to `COCCC[C@H](C(=O)O)[C@H](Cc1ccccc1)c1nnn[nH]1` [Example 9, (2S)-5-methoxy-2-[(1S)-2-phenyl-1-(1H-tetrazol-5-yl)ethyl]pentanoic acid], the “IMP1 SM5741 MITC95” value is 25 µM.
The same measure, in the same setting: the value for `O=C(O)[C@@H](CC1CCCC1)[C@H](Cc1ccccc1)c1nnn[nH]1` [Example 10, (2S,3S)-2-(cyclopentylmethyl)-4-phenyl-3-(1H-tetrazol-5-yl)butanoic acid] was 7.0 µM.
Still for that read-out and setting: the value for `O=C(O)[C@@H](CCC1CCCCC1)[C@H](Cc1ccccc1)c1nnn[nH]1` [Example 11, (2S,3S)-2-(2-cyclohexylethyl)-4-phenyl-3-(1H-tetrazol-5-yl)butanoic acid] was 27 µM.

The next test deals with Klebsiella pneumoniae expressing VIM-1 (IHMA599644). Described as above. The test is classed as cell-based. As to conditions: 95% inhibition of bacterial growth, strain IHMA599644. In outline:
as §2
As to `CCC[C@H](C(=O)O)[C@H](Cc1ccccc1)c1nnn[nH]1` [Example 4, (S)-2-((S)-2-phenyl-1-(1H-tetrazol-5-yl)ethyl)pentanoic acid], the “VIM1 KP599644 MITC95” value worked out at 50 µM.
On to `CCC[C@@H](C(=O)O)[C@H](Cc1ccccc1)c1nnn[nH]1` [Example 5, (R)-2-((S)-2-phenyl-1-(1H-tetrazol-5-yl)ethyl)pentanoic acid], for which the “VIM1 KP599644 MITC95” value came to 200 µM.
The same measure, in the same setting: the value for `O=C(O)[C@@H](CCCC(F)(F)F)[C@H](Cc1ccccc1)c1nnn[nH]1` [Example 6, (S)-6,6,6-trifluoro-2-((S)-2-phenyl-1-(1H-tetrazol-5-yl)ethyl)hexanoic acid] was above 200 µM.
On to `CC(C)C[C@H](C(=O)O)[C@H](Cc1ccccc1)c1nnn[nH]1` [Example 7, (2S)-4-methyl-2-[(2S)-2-phenyl-1-(1H-tetrazol-5-yl)ethyl]pentanoic acid], for which the “VIM1 KP599644 MITC95” value was 37.5 µM.
On the same count and under the same terms, the value for `CC[C@H](C(=O)O)[C@H](Cc1ccccc1)c1nnn[nH]1` [Example 8, (2S,3S)-2-ethyl-4-phenyl-3-(1H-tetrazol-5-yl)butanoic acid] was 62.5 µM; that for `COCCC[C@H](C(=O)O)[C@H](Cc1ccccc1)c1nnn[nH]1` [Example 9, (2S)-5-methoxy-2-[(1S)-2-phenyl-1-(1H-tetrazol-5-yl)ethyl]pentanoic acid] was 200 µM.
Same read-out and setting: the same measure for `O=C(O)[C@@H](CC1CCCC1)[C@H](Cc1ccccc1)c1nnn[nH]1` [Example 10, (2S,3S)-2-(cyclopentylmethyl)-4-phenyl-3-(1H-tetrazol-5-yl)butanoic acid]: 150 µM; for `O=C(O)[C@@H](CCC1CCCCC1)[C@H](Cc1ccccc1)c1nnn[nH]1` [Example 11, (2S,3S)-2-(2-cyclohexylethyl)-4-phenyl-3-(1H-tetrazol-5-yl)butanoic acid]: above 200 µM.

What is called IC50 is the concentration that gives 50% inhibition.
